The text below walks through data of patent US20260306460A1, “COMPOSITION FOR REMOVING AND INHIBITING SENESCENT CELLS, AND USES THEREOF” (LIFECEUTIX CO., LTD., priority 2023, published 2026).

One experiment relates to naturally aged mice. As to the kind of experiment: Anti-aging evaluation in naturally aged mice, Example 31, Table 55.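 As to all read-outs here: Vehicle-dosed control mice received solution alone at matching volume, values compare test-compound-treated aged mice against that control.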 Format: in vivo, mouse. The conditions noted are these: for Femur Ctsk mRNA / Kidney Agtr1a mRNA / Liver IL6 mRNA / Liver MMP3 mRNA / Liver p16 mRNA / Open Field Test Time in Center: untreated = 100%; for Heart Sur2a mRNA / Joint Col2a1 mRNA / Skin Col1a1 mRNA / Skin SDF1 mRNA: untreated = 1.0; for Muscle Mass: untreated 0.64 g; for Fat Mass: untreated 0.82 g; for Cataract incidence: untreated 83%.

For experiment [1], the system named is bleomycin-induced pulmonary fibrosis mice. Briefly: Bleomycin-induced pulmonary fibrosis mice, Example 31, Table 56. Format: in vivo, mouse. The conditions noted are these: untreated = 100%. Here is the method: (§1) The control group was administered only the solution in the same volume. After the end of drug administration, the method described in each example below was performed. Liver, kidney, skin, knee joint, heart, and femur tissues were collected from mice in which natural aging was induced in the same manner as in Examples 7-2 and 7-6 of WO2023-085787 A1. Lung tissues were collected from mice in which pulmonary fibrosis was induced using the same method as in Example 24-1. Liver tissues were collected from mice in which hepatic fibrosis was induced using the same method as in Example 26, and total RNA was extracted. qRT-PCR was performed and analyzed using the synthesized cDNA. […] The mRNA amounts of p16, MMP3, and IL6 after natural aging was induced were calculated as 100% and compared with the mRNA amounts of p16, MMP3, and IL6 after treatment with the test compound. In addition, an open field test for the analysis of aging-related frailty, agtr1a mRNA analysis for kidney damage and disease evaluation, col1a1 and SDF1 mRNA analysis for skin aging evaluation such as wrinkles/loss of elasticity/hyperpigmentation, col2a1 mRNA analysis for evaluating joint aging such as osteoarthritis, sur2a mRNA analysis for evaluating cardiac aging such as decreased cardiac load resistance, ctsk mRNA analysis for evaluating bone diseases due to aging such as osteoporosis, muscle tissue weight for analyzing sarcopenia, fat tissue weight for analyzing lipoatrophy, and cataract incidence analysis were performed in mice. For cataract incidence analysis, the drug was administered twice a week under the conditions specified above, and biweekly examinations were conducted until death.
The table below quantitatively presents the evaluation results for each item in mice with bleomycin-induced pulmonary fibrosis, untreated and treated with the test compound.

Experiment [2] has as its system carbon tetrachloride-induced liver fibrosis mice. Briefly: Carbon tetrachloride-induced liver fibrosis mice, Example 31, Table 57. The conditions noted are these: CCl4-induced liver fibrosis mice, untreated = 100%. In kind it is in vivo, mouse. The method, then: as §1
The test system of the next experiment is senescent cells. Briefly: Viability of senescent cells (CellTiter-Glo), Example 17, Table 13. The conditions noted are these: Homo sapiens, read-out: Survival (%).
Another experiment deals with senescent A549 cells. As to the kind of experiment: Viability of senescent A549 cells (CellTiter-Glo), Example 18, Table 15. The conditions noted are these: Homo sapiens, A549, read-out: Survival (%). (Cellular ATP, detected with luciferase, serves as a proxy for viable cell number.)

Description for senescent A549 cells: Senescence-induced cancer cells treated with doxorubicin were treated with the test compound at designated concentrations, and cell viability was measured using the CellTiter-Glo Luminescent Cell Viability Assay (Promega).
Description for senescent cells: Cells induced to undergo senescence by doxorubicin treatment were treated with test compound at designated concentrations and measured using the CellTiter-Glo Luminescent Cell Viability Assay (Promega).

Regarding `C[C@@H](C(=O)Nc1ccc(Cl)cc1)[C@H]1CC[C@@H](c2ccnc3ccc(F)cc32)CC1` [LX-8805, Linrodostat], in the experiment with naturally aged mice, the “Femur Ctsk mRNA” value is reported as 58%, the “Heart Sur2a mRNA” value turned out to be 2.6 fold, the “Joint Col2a1 mRNA” value was determined as 2.6 fold and the “Kidney Agtr1a mRNA” value was determined as 55%. For the same compound, in the experiment with naturally aged mice, the “Liver IL6 mRNA” value worked out at 25%, the “Liver MMP3 mRNA” value turned out to be 67%, the “Liver p16 mRNA” value turned out to be 47% and the “Open Field Test Time in Center” value is listed as 217%. Further, in the experiment on naturally aged mice, the “Skin Col1a1 mRNA” value is 1.7 Fold, the “Skin SDF1 mRNA” value is given as 1.9 fold, the “Muscle Mass” value is reported as 0.72 g and the “Fat Mass” value came out at 0.87 g. The compound further registered a Cataract incidence in the experiment on naturally aged mice of 68%. Further, in experiment [1], the “Lung p16 mRNA” value is reported as 40 (±2.1) % and the “Col1a1 mRNA” value was 70 (±4.6) %. In experiment [2], the “Liver p16 mRNA” value is listed as 60 (±3.9) % and the “Col1a1 mRNA” value is 36 (±3.4) %. In the experiment with senescent cells, the viability at 1.1 µM came to 99.1%, the viability at 10 µM was determined as 42.1% and the viability at 30 µM was 21.8%. Moreover, in the experiment with senescent A549 cells, the viability at 1.1 µM came to 103%, the viability at 10 µM was 58.3% and the viability at 30 µM stood at 32.8%.
For the compound `[2H]C([2H])([2H])OCC1(CO)C(=O)C2CCN1CC2` (stereo not drawn) [LX-5721], in the experiment on naturally aged mice, the “Femur Ctsk mRNA” value turned out to be 63%, the “Heart Sur2a mRNA” value was 2.7 fold, the “Joint Col2a1 mRNA” value is given as 2.0 fold and the “Kidney Agtr1a mRNA” value is 59%. In addition, in the experiment with naturally aged mice, the “Liver IL6 mRNA” value came to 54%, the “Liver MMP3 mRNA” value is 72%, the “Liver p16 mRNA” value was determined as 41% and the “Open Field Test Time in Center” value came to 218%. Besides, in the experiment with naturally aged mice, the “Skin Col1a1 mRNA” value is recorded as 1.7 Fold, the “Skin SDF1 mRNA” value came to 1.7 fold, the “Muscle Mass” value turned out to be 0.68 g and the “Fat Mass” value is on record as 0.97 g. The same compound gave a Cataract incidence in the experiment on naturally aged mice of 71%. Also, in experiment [1], the “Lung p16 mRNA” value is 65 (±5.6) % and the “Col1a1 mRNA” value is recorded as 78 (±4.7) %. Besides, in experiment [2], the “Liver p16 mRNA” value was 52 (±9.6) % and the “Col1a1 mRNA” value is 80 (±9.3) %. In the experiment on senescent cells, the viability at 1.1 µM is 98.5%, the viability at 10 µM was determined as 45.5% and the viability at 30 µM amounted to 13.4%. Further, in the experiment with senescent A549 cells, the viability at 1.1 µM worked out at 106% and the viability at 10 µM came out at 17.8%.
As to `C=C1CC[C@@H]2[C@](C)(CO)[C@H](O)CC[C@@]2(C)[C@@H]1C/C=C1/C(=O)OC[C@H]1O` [LX-6800, Andrographolide], in the experiment with naturally aged mice, the “Femur Ctsk mRNA” value was 58%, the “Heart Sur2a mRNA” value turned out to be 2.3 fold, the “Joint Col2a1 mRNA” value is on record as 2.4 fold and the “Kidney Agtr1a mRNA” value is given as 78%. For the same compound, in the experiment with naturally aged mice, the “Liver IL6 mRNA” value worked out at 56%, the “Liver MMP3 mRNA” value stood at 77%, the “Liver p16 mRNA” value amounted to 73% and the “Open Field Test Time in Center” value is 154%. For the same compound, in the experiment on naturally aged mice, the “Skin Col1a1 mRNA” value is 2.1 Fold, the “Skin SDF1 mRNA” value stood at 2.0 fold, the “Muscle Mass” value is recorded as 0.70 g and the “Fat Mass” value is listed as 0.91 g. The same compound displayed a Cataract incidence in the experiment on naturally aged mice of 75%. In experiment [1], the “Lung p16 mRNA” value is given as 78 (±3.8) % and the “Col1a1 mRNA” value was 62 (±3.6) %. Moreover, in experiment [2], the “Liver p16 mRNA” value is given as 80 (±4.9) % and the “Col1a1 mRNA” value is on record as 76 (±2.7) %. In addition, in the experiment with senescent cells, the viability at 1.1 µM worked out at 81.6%, the viability at 10 µM came to 56.5% and the viability at 30 µM worked out at 2.2%. Also, in the experiment with senescent A549 cells, the viability at 1.1 µM came to 80.9%, the viability at 10 µM amounted to 70.9%, the viability at 30 µM worked out at 43.8% and the viability at 90 µM was 17%.
